Measured values: patent publication US7728036B2, “Methods for delivery of catecholic butanes for treatment of tumors” (priority 2003, dated 2010)

Legend:
Solubility character = type: physicochemical
[1] = system: HPV-16 transformed immortal mouse epithelial cells (C3); conditions: intratumor injection; cited from earlier work
[2] = system: human mammary carcinoma MX-1 xenograft; conditions: intratumor injection or topical application of NDGA; cited from earlier work

C[C@H](Cc1ccc(OC(=O)CN(C)C)c(OC(=O)CN(C)C)c1)[C@@H](C)Cc1ccc(OC(=O)CN(C)C)c(OC(=O)CN(C)C)c1 [G4N, meso-1,4-bis[3,4-(dimethylaminoacetoxy)phenyl]-(2R,3S)-dimethylbutane]
Water solubility / hydrophilic or lipophilic character (Solubility character): water-soluble, hydrophilic | Suppression of tumor growth / tumoricidal activity [1]: some evidence of suppression of tumor growth

CC(Cc1ccc(O)c(O)c1)C(C)Cc1ccc(O)c(O)c1 (stereo not drawn) [NDGA, nordihydroguaiaretic acid]
Inhibition of tumor growth [2]: Some evidence of inhibition of tumor growth
